Measured values as given in ChEMBL document CHEMBL1201862, “PubChem BioAssay data set” (2004).
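In this assay, cells in 96-well plates receive the compound at five concentrations for 48 hours. Endpoints are linearly interpolated between the surrounding concentrations. GI50 marks 50% less growth.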 Activity calls are given as the source filed them. Cut-off read from the data, not from the text of the source: active = GI50 up to about 1.1 µM and inactive = higher.

Tests used:
Experiment in all cases: inhibition of tumour cell growth, NCI panel, 48 h
OVCAR-3 = system: OVCAR-3
SN12C = system: SN12C
NCI-H23 = system: NCI-H23
COLO 205 = system: COLO 205
UACC-257 = system: UACC-257
OVCAR-4 = system: OVCAR-4
SF-539 = system: SF-539
SW-620 = system: SW-620
CCRF-CEM = system: CCRF-CEM
SK-MEL-2 = system: SK-MEL-2
NCI-H226 = system: NCI-H226
A498 = system: A498
A549 = system: A549
RPMI-8226 = system: RPMI-8226
RXF 393 = system: RXF 393
LOX IMVI = system: LOX IMVI
OVCAR-8 = system: OVCAR-8
HL-60 = system: HL-60
NCI-H522 = system: NCI-H522

| Structure (SMILES) | GI50 (OVCAR-3) | GI50 (SN12C) | GI50 (NCI-H23) | GI50 (COLO 205) | GI50 (UACC-257) | GI50 (OVCAR-4) | GI50 (SF-539) | GI50 (SW-620) | GI50 (CCRF-CEM) | GI50 (SK-MEL-2) | GI50 (NCI-H226) | GI50 (A498) | GI50 (A549) | GI50 (RPMI-8226) | GI50 (RXF 393) | GI50 (LOX IMVI) | GI50 (OVCAR-8) | GI50 (HL-60) | GI50 (NCI-H522) |
| --- | --- | --- | --- | --- | --- | --- | --- | --- | --- | --- | --- | --- | --- | --- | --- | --- | --- | --- | --- |
| COc1ccc2c(c1OC)C1=C(C2=O)c2cc3c(cc2CCN1)OCO3 | 31.6 µM (inactive) | 6.76 µM (inactive) | 46.5 µM (inactive) | 4.08 µM (inactive) | 34.5 µM (inactive) | 4.35 µM (inactive) | 28.2 µM (inactive) | 22.5 µM (inactive) | 26.1 µM (inactive) | 29 µM (inactive) | 2.9 µM (inactive) | 55.8 µM (inactive) | 47.2 µM (inactive) | 23.1 µM (inactive) | 42.7 µM (inactive) | 24.8 µM (inactive) | 39.9 µM (inactive) | 19.2 µM (inactive) |  |
| Cc1ccc(S(=O)(=O)N/N=C(/CC(=O)c2c(C)[n+]([O-])c3ccccc3[n+]2[O-])C(=O)Nc2ccccc2C)cc1 | > 100 µM (inactive) | > 100 µM (inactive) | > 100 µM (inactive) | > 100 µM (inactive) | > 100 µM (inactive) | > 100 µM (inactive) | > 100 µM (inactive) | > 100 µM (inactive) |  | > 100 µM (inactive) | > 100 µM (inactive) | > 100 µM (inactive) | > 100 µM (inactive) | > 100 µM (inactive) | > 100 µM (inactive) |  |  |  | > 100 µM (inactive) |
| N=C(N)NCCCC(Nc1c2ccccc2nc2ccccc12)C(=O)O (configuration not stated) | 82.6 µM (inactive) | > 100 µM (inactive) | > 100 µM (inactive) | > 100 µM (inactive) | > 100 µM (inactive) | 3.51 µM (inactive) | > 100 µM (inactive) | > 100 µM (inactive) | > 100 µM (inactive) | > 100 µM (inactive) | > 100 µM (inactive) |  | > 100 µM (inactive) | 33.1 µM (inactive) | > 100 µM (inactive) | > 100 µM (inactive) | > 100 µM (inactive) | 26.5 µM (inactive) | 44 µM (inactive) |
| COC1(OC)C2(Cl)C(Cl)=C(Cl)C1(Cl)C1C2C2CC1(C(=O)O)c1ccccc12 (configuration not stated) | 18.2 µM (inactive) | 20.5 µM (inactive) | 14.3 µM (inactive) | 23.9 µM (inactive) | 14.6 µM (inactive) | 15 µM (inactive) |  | 18.8 µM (inactive) | 4.74 µM (inactive) |  | 26.2 µM (inactive) | 81.1 µM (inactive) | 28.1 µM (inactive) | 17 µM (inactive) |  | 16.7 µM (inactive) | 27.4 µM (inactive) | 22.1 µM (inactive) |  |
| O=C(O)c1ccc(-c2nc3cc(Cl)ccc3[nH]2)cc1 | > 100 µM (inactive) | > 100 µM (inactive) |  | > 100 µM (inactive) |  |  | > 100 µM (inactive) | > 100 µM (inactive) | > 100 µM (inactive) | > 100 µM (inactive) | > 100 µM (inactive) |  | > 100 µM (inactive) | > 100 µM (inactive) | > 100 µM (inactive) |  | > 100 µM (inactive) | > 100 µM (inactive) | > 100 µM (inactive) |
| CN(Cc1cnc2nc(N)nc(N)c2n1)c1ccc(C(=O)NC2CCCCC2)cc1 | 56.2 µM (inactive) | 75 µM (inactive) | 36.1 µM (inactive) | 31.3 µM (inactive) | 21.3 µM (inactive) |  | 13.6 µM (inactive) | 11.1 µM (inactive) | 36.7 µM (inactive) | 35.5 µM (inactive) | 23.1 µM (inactive) | 24.4 µM (inactive) |  | > 100 µM (inactive) | 33 µM (inactive) | 5.51 µM (inactive) | 14.2 µM (inactive) | 23.7 µM (inactive) |  |
| CC(O[Si](C)(C)C)C1C=CC(C)n2c(=O)n(-c3ccccc3)c(=O)n21 (configuration not stated) | > 100 µM (inactive) |  | > 100 µM (inactive) | > 100 µM (inactive) |  | > 100 µM (inactive) | > 100 µM (inactive) |  |  | > 100 µM (inactive) |  |  | > 100 µM (inactive) | > 100 µM (inactive) | > 100 µM (inactive) |  | > 100 µM (inactive) | > 100 µM (inactive) |  |
| COc1ccc(C2=NN(C(=O)COc3ccc(Cl)cc3)C(O)(c3ccc(Cl)cc3)C2)cc1 (configuration not stated) | > 100 µM (inactive) | > 100 µM (inactive) | 36.1 µM (inactive) | > 100 µM (inactive) | > 100 µM (inactive) | > 100 µM (inactive) | > 100 µM (inactive) | > 100 µM (inactive) |  | > 100 µM (inactive) | > 100 µM (inactive) |  | > 100 µM (inactive) | > 100 µM (inactive) |  | > 100 µM (inactive) | > 100 µM (inactive) | > 100 µM (inactive) | > 100 µM (inactive) |
| CCCCc1c2c(nc3c1CCc1cc4cc5c(nc4nc1-3)-c1nc3c(c(CCCC)c1CC5)CCCC3)CCCC2 | > 10 µM (inactive) | 56.4 µM (inactive) | 49.5 µM (inactive) | 35.4 µM (inactive) | 59.8 µM (inactive) |  | 16.4 µM (inactive) | 40 µM (inactive) | 31.7 µM (inactive) |  | 19.4 µM (inactive) |  | 20.5 µM (inactive) | 27 µM (inactive) | 6.56 µM (inactive) | 41.9 µM (inactive) | 39.6 µM (inactive) | 42.1 µM (inactive) | 43.7 µM (inactive) |
| CCCC12Cc3c(OC)ccc(OC)c3CC(Cc3c(OC)ccc(OC)c31)C2=O (configuration not stated) | > 100 µM (inactive) | > 100 µM (inactive) | > 100 µM (inactive) |  | > 100 µM (inactive) | 18.8 µM (inactive) | > 100 µM (inactive) | > 100 µM (inactive) | > 100 µM (inactive) | > 100 µM (inactive) | 24.8 µM (inactive) | > 100 µM (inactive) | > 100 µM (inactive) |  | > 100 µM (inactive) |  | > 100 µM (inactive) | 7.21 µM (inactive) | 81.5 µM (inactive) |
| Cc1cc2c(=O)cc(-c3cccs3)oc2c(C(=O)O)c1C | > 100 µM (inactive) | > 100 µM (inactive) | > 100 µM (inactive) | > 100 µM (inactive) | > 100 µM (inactive) | > 100 µM (inactive) | > 10 µM (inactive) | > 100 µM (inactive) | 64.7 µM (inactive) | > 100 µM (inactive) |  | > 100 µM (inactive) | > 100 µM (inactive) | 59.3 µM (inactive) |  | > 100 µM (inactive) | > 100 µM (inactive) |  | 21.2 µM (inactive) |
| COc1ccc(/C=N/Nc2nc(-c3cc4oc(=O)n(C)c4cc3Cl)cs2)cc1OC | 9.95 µM (inactive) | 17.9 µM (inactive) | 6.15 µM (inactive) | 81.8 µM (inactive) | 4.27 µM (inactive) | 11.2 µM (inactive) | 48.3 µM (inactive) | 44.1 µM (inactive) | 91 µM (inactive) | 53.1 µM (inactive) |  |  | 4.35 µM (inactive) | 8.26 µM (inactive) | 15.4 µM (inactive) | 28.6 µM (inactive) | 36.6 µM (inactive) | 15.7 µM (inactive) |  |
| CC(C)(C)C(=O)CC(=O)C(C)(C)C.CC(C)(C)C(=O)CC(=O)C(C)(C)C.[SiH4] | 2.07 µM (inactive) | 1.18 µM (inactive) | 1.04 µM (active) | 1.46 µM (inactive) | 2.44 µM (inactive) | 0.612 µM (active) | 2.56 µM (inactive) | 0.847 µM (active) | 1.79 µM (inactive) |  | 0.0428 µM (active) | 2.81 µM (inactive) | 2.95 µM (inactive) | 0.299 µM (active) |  |  | 2.92 µM (inactive) |  | 0.573 µM (active) |
